Results taken from US9115149B2, “Heterocyclic compounds as inhibitors of fatty acid biosysnthesis for bacterial infections” (Vitas Pharma Research Private Limited, priority 2011, dated 2015).
In brackets after ≈: the same amount, converted by molar mass. Where two headings read alike, the source gives them in different places.

Experiments:
[1] = system: Staphylococcus aureus (ATCC29213); assay: MIC by microbroth dilution, methicillin sensitive S. aureus; type: cell-based; conditions: read-out: Minimum inhibitory concentration (MIC) Staphylococcus aureus (ATCC29213)
Procedure: (§1) Shown below are the biological activities of representative compounds of the invention. The compounds were tested by the microbroth dilution method (National committee for Clinical Laboratory Standards, M07-A8, Volume 29, 2009) to determine the Minimum Inhibitory Concentration (MIC) against Methicillin sensitive and resistant Staphylococcus aureus. The MICs in the presence of 10% BSA was also tested. Further, select compounds were tested for metabolic stability using mouse liver microsomes based on published protocols (Journal of Biological Sciences, 2008, 8, 1110-1114).

[2] = system: Methicillin resistant Staphylococcus aureus (ATCC 33591); assay: MIC by microbroth dilution, methicillin resistant S. aureus; type: cell-based; conditions: ATCC33591, read-out: Minimum inhibitory concentration (MIC) Methicillin resistant Staphylococcus aureus (ATCC 33591)
Procedure: as §1

[3] = system: Methicillin resistant Staphylococcus aureus (ATCC 33591); assay: MIC in the presence of BSA; type: cell-based; conditions: ATCC33591, 10% BSA
Procedure: as §1

[4] = Metabolic stability in mouse liver microsomes; type: in vitro ADME
Procedure: as §1

[5] = system: Bacillus subtilis (ΔFabI, ΔFabL; Pxylose SaFabI); assay: Target specificity: MIC in B. subtilis expressing S. aureus FabI under xylose inducible promoter; type: cell-based
Procedure: To test for target specificity, the MIC was determined in a Bacillus subtilis strain in which the two FabI homologues (FabI and FabL) were deleted and replaced with S. aureus FabI (Sa FabI) under a Xylose inducible promoter. By varying the amount of xylose in the growth medium, the expression of FabI was proportionately modified. Compounds specifically targeting Sa FabI show an increased MIC when higher amounts of FabI are present in the cell (high Xylose concentrations). In contrast, when FabI levels are low, the cell becomes hypersusceptible, reducing the MIC (low Xylose concentrations). […] Shown below are data for target specificity.

[6] = Pharmacokinetic profile in male Swiss albino mice; conditions: mouse, in vivo
Procedure: The following compounds were dosed to male Swiss albino mice to determine the pharmacokinetic profiles.

[7] = read-out: MIC in the presence of 0.005% Xylose (low Xylose concentration)
[8] = read-out: MIC in the presence of 0.5% Xylose (high Xylose concentration)
[9] = intravenous single dose 5 mg/kg body weight

Row | SMILES | MIC [1] [µg/mL] | MIC [2] [µg/mL] | MIC [3] [µg/mL] | Metabolic stability (mouse liver microsomes) % of compound remaining after 30 minutes [4] [%] | MIC [5, 7] [ng/mL] | MIC [5, 8] [ng/mL] | AUC [6, 9] [ng·h/mL] | Cmax [6, 9] [ng/mL] | clearance [6, 9] [mL/min/kg] | half-life [6, 9] [min] | bioavailability ([6]; po) [%]
1 | Cc1ccc2oc(CN(C)C(=O)/C=C/c3ccc4c(c3)C3(CCC3)C(=O)N4)c(C)c2c1 [VT-02-00086, (E)-N-((3,5-dimethylbenzofuran-2-yl)methyl)-N-methyl-3-(2′-oxospiro[cyclobutane-1,3′-indoline]-5′-yl)acrylamide] | 0.5 (≈ 1.21 µM) | 0.5 (≈ 1.21 µM) | 8 | 26 | 60 | 500 |  |  |  |  | 
2 | Cc1c(CN(C)C(=O)/C=C/c2cnc3c(c2)C2(CCCCC2)C(=O)N3)sc2ccccc12 [VT-02-00075, (E)-N-methyl-N-((3-methylbenzo[b]thiophen-2-yl)methyl)-3-(2′-oxo-1′,2′-dihydrospiro[cyclohexane-1,3′-pyrrolo[2,3-b]pyridine]-5′-yl)acrylamide] | 0.5 (≈ 1.12 µM) | 0.5 (≈ 1.12 µM) | 4 | 5 | < 0.00191 | 0.00763 |  |  |  |  | 
3 | Cc1c(CN(C)C(=O)/C=C/c2cnc3c(c2)C2(CCC2)C(=O)N3)oc2ccccc12 [VT-02-00092, (E)-N-methyl-N-((3-methylbenzofuran-2-yl)methyl)-3-(2′-oxo-1′,2′-dihydrospiro[cyclobutane-1,3′-pyrrolo[2,3-b]pyridine]-5′-yl)acrylamide] | 0.06 (≈ 0.149 µM) | 0.06 (≈ 0.149 µM) | 0.25 | 22 |  | 3.9 |  |  |  |  | 
4 | CN1CCC(Nc2n[nH]c3ncc(/C=C/C(=O)N(C)Cc4cc5ccccc5n4C)cc23)CC1 [VT-02-00037, (E)-N-methyl-N-((1-methyl-1H-indol-2-yl)methyl)-3-(3-(1-methylpiperidin-4-ylamino)-1H-pyrazolo[3,4-b]pyridin-5-yl)acrylamide] | > 32 | > 32 |  |  |  |  |  |  |  |  | 
5 | Cn1c2c(c3ccccc31)CN(C(=O)/C=C/c1cnc3c(c1)C1(CCC1)C(=O)N3)CC2 [VT-02-00082, (E)-5′-(3-(5-methyl-3,4-dihydro-1H-pyrido[4,3-b]indol-2(5H)-yl)-3-oxoprop-1-enyl)spiro[cyclobutane-1,3′-pyrrolo[2,3-b]pyridin]-2′(1′H)-one] | > 8 | > 8 |  |  |  |  |  |  |  |  | 
6 | CCn1c(=O)[nH]c2ncc(/C=C/C(=O)N(C)Cc3nc4ccccc4s3)cc21 [VT-02-00054, (E)-N-(benzo[d]thiazol-2-ylmethyl)-3-(1-ethyl-2-oxo-2,3-dihydro-1H-imidazo[4,5-b]pyridin-6-yl)-N-methylacrylamide] | > 16 | > 16 |  |  |  |  |  |  |  |  | 
7 | CN(Cc1cc2ccccc2n1C)C(=O)/C=C/c1cnc2[nH]c3ccccc3c2c1 [VT-02-00034, (E)-N-methyl-N-((1-methyl-1H-indol-2-yl)methyl)-3-(9H-pyrido[2,3-b]indol-3-yl)acrylamide] | > 64 | > 64 |  |  |  |  |  |  |  |  | 
8 | CN(Cc1cc2ccccc2n1C)C(=O)/C=C/c1cnc2[nH]nc(N(C)C)c2c1 [VT-02-00039, (E)-3-(3-Dimethylamino-1H-pyrazolo[3,4-b]pyridin-5-yl)-N-methyl-N-(1-methyl-1H-indol-2-ylmethyl)-acrylamide] | 2 (≈ 5.15 µM) | 2 (≈ 5.15 µM) |  | 46 | 60 | 1000 | 908 | 868 | 91.5 | 46.2 | 19
9 | Cc1c(CN(C)C(=O)/C=C/c2cnc3c(c2)C2(CCCC2)C(=O)N3)sc2ccccc12 [VT-02-00074, (E)-N-methyl-N-((3-methylbenzo[b]thiophen-2-yl)methyl)-3-(2′-oxo-1′,2′-dihydrospiro[cyclopentane-1,3′-pyrrolo[2,3-b]pyridine]-5′-yl)acrylamide] | 0.06 (≈ 0.139 µM) | 0.06 (≈ 0.139 µM) | 1 | 8 | 7.8 | 60 |  |  |  |  | 
10 | CN(Cc1cc2ccccc2s1)C(=O)/C=C/c1cnc2c(c1)C(C)(C)C(=O)N2 [VT-02-00066, (E)-N-(benzo[b]thiophen-2-ylmethyl)-3-(3,3-dimethyl-2-oxo-2,3-dihydro-1H-pyrrolo[2,3-b]pyridin-5-yl)-N-methylacrylamide] | 0.5 (≈ 1.28 µM) | 0.5 (≈ 1.28 µM) | 4 | 29 | 7.8 | 1000 |  |  |  |  | 
11 | CN(Cc1cc2ccccc2n1C)C(=O)/C=C/c1cnc2[nH]cnc2c1 [VT-02-00060, (E)-3-(3H-imidazo[4,5-b]pyridin-6-yl)-N-methyl-N-((1-methyl-1H-indol-2-yl)methyl)acrylamide] | > 16 | > 16 |  |  |  |  |  |  |  |  | 
12 | CNc1n[nH]c2ncc(/C=C/C(=O)N(C)Cc3cc4ccccc4n3C)cc12 [VT-02-00036, (E)-N-Methyl-3-(3-methylamino-1H-pyrazolo[3,4-b]pyridin-5-yl)-N-(1-methyl-1H-indol-2-ylmethyl)-acrylamide] | 8 (≈ 21.4 µM) | 8 (≈ 21.4 µM) |  |  | 500 | 2000 |  |  |  |  | 
13 | COc1n[nH]c2ncc(/C=C/C(=O)N(C)Cc3cc4ccccc4n3C)cc12 [VT-02-00046, (E)-3-(3-Methoxy-1H-pyrazolo[3,4-b]pyridin-5-yl)-N-methyl-N-(1-methyl-1H-indol-2-ylmethyl)-acrylamide] | > 32 | > 32 |  |  | > 32000 | > 32000 |  |  |  |  | 
14 | CN(Cc1cc2ccccc2n1C)C(=O)/C=C/c1cnc2c(c1)CC(=O)N2 [VT-02-00050, (E)-N-methyl-N-((1-methyl-1H-indol-2-yl)methyl)-3-(2-oxo-2,3-dihydro-1H-pyrrolo[2,3-b]pyridin-5-yl)acrylamide] | 2 (≈ 5.55 µM) | 2 (≈ 5.55 µM) |  |  |  |  |  |  |  |  | 
15 | CN(Cc1cc2ccccc2n1C)C(=O)/C=C/c1cnc2[nH]ncc2c1 [VT-02-00032, (E)-N-Methyl-N-(1-methyl-1H-indol-2-ylmethyl)-3-(1H-pyrazolo[3,4-b]pyridin-5-yl)-acrylamide] | 4 (≈ 11.6 µM) | 4 (≈ 11.6 µM) |  |  | 125 | 4000 |  |  |  |  | 
16 | CN(Cc1cc2ccccc2n1C)C(=O)/C=C/c1cnc2[nH]c(=O)n(C)c2c1 [VT-02-00043, (E)-N-Methyl-N-(1-methyl-1H-indol-2-ylmethyl)-3-(1-methyl-2-oxo-2,3-dihydro-1H-imidazo[4,5-b]pyridin-6-yl)-acrylamide] | 4 (≈ 10.7 µM) | 8 (≈ 21.3 µM) |  |  | 7.8 | 30 |  |  |  |  | 
17 | CN(Cc1cc2ccccc2n1C)C(=O)/C=C/c1cnc2[nH]c(=O)[nH]c2c1 [VT-02-00002, (E)-N-methyl-N-((1-methyl-1H-indol-2-yl)methyl)-3-(2-oxo-2,3-dihydro-1H-imidazo[4,5-b]pyridin-6-yl)acrylamide] | 1 (≈ 2.77 µM) | 2 (≈ 5.53 µM) |  |  | 60 | 1000 |  |  |  |  | 
18 | CN(Cc1cc2ccccc2n1C)C(=O)/C=C/c1ccc2[nH]c3ncccc3c2c1 [VT-02-00034a, (E)-N-methyl-N-((1-methyl-1H-indol-2-yl)methyl)-3-(9H-pyrido[2,3-b]indol-6-yl)acrylamide] | > 32 | > 32 |  |  |  |  |  |  |  |  | 
19 | CN(Cc1cc2ccccc2n1C)C(=O)/C=C/c1cnc2c(c1)C(C)(C)C(=O)N2 [VT-02-00055, (E)-3-(3,3-dimethyl-2-oxo-2,3-dihydro-1H-pyrrolo[2,3-b]pyridin-5-yl)-N-methyl-N-((1-methyl-1H-indol-2-yl)methyl)acrylamide] | 0.25 (≈ 0.644 µM) | 0.25 (≈ 0.644 µM) | 2 | 40.3 | 60 | 2000 |  |  |  |  | 
20 | CCn1c(=O)[nH]c2ncc(/C=C/C(=O)N(C)Cc3cc4ccccc4s3)cc21 [VT-02-00049, (E)-N-(benzo[b]thiophen-2-ylmethyl)-3-(1-ethyl-2-oxo-2,3-dihydro-1H-imidazo[4,5-b]pyridin-6-yl)-N-methylacrylamide] | 0.5 (≈ 1.27 µM) | 0.5 (≈ 1.27 µM) |  | 44 | 0.48 | 31 |  |  |  |  | 
21 | CN(Cc1cc2ccccc2n1C)C(=O)/C=C/c1cnc2[nH]c(=O)oc2c1 [VT-02-00058, (E)-N-methyl-N-((1-methyl-1H-indol-2-yl)methyl)-3-(2-oxo-2,3-dihydrooxazolo[4,5-b]pyridin-6-yl)acrylamide] | > 16 | > 16 |  |  |  |  |  |  |  |  | 
22 | CN(Cc1cc2ccccc2n1C)C(=O)/C=C/c1cnc2[nH]nc(N)c2c1 [VT-02-00029a, (E)-3-(3-amino-1H-pyrazolo[3,4-b]pyridin-5-yl)-N-methyl-N-((1-methyl-1H-indol-2-yl)methyl)acrylamide] | 1 (≈ 2.77 µM) | 2 (≈ 5.55 µM) |  |  | 30 | 500 |  |  |  |  | 
23 | CCNc1n[nH]c2ncc(/C=C/C(=O)N(C)Cc3cc4ccccc4n3C)cc12 [VT-02-00038, (E)-3-(3-(ethylamino)-1H-pyrazolo[3,4-b]pyridin-5-yl)-N-methyl-N-((1-methyl-1H-indol-2-yl)methyl)acrylamide] | > 32 | > 32 |  |  |  |  |  |  |  |  | 
